Where two headings read alike, the source gives them in different places.
Target: T1, human GPR120 (Homo sapiens, UniProt Q5NUL3)
T1 construct: host or cells: HEK293 cells coexpressing Gqi5
T1 sequence (Q5NUL3 1-361): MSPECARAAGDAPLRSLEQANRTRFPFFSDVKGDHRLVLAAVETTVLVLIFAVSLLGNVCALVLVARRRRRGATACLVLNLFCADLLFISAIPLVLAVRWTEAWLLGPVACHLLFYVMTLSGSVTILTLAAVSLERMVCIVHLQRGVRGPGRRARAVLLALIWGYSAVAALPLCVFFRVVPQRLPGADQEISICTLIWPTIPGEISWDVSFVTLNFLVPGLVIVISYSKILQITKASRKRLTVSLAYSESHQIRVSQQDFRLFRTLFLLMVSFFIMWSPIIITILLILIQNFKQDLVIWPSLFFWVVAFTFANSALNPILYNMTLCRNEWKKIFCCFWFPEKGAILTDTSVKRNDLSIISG
Experiment: Intracellular Ca2+ (FLIPR Calcium 4, Flexstation) assay in human GPR120 stable HEK293 cell line coexpressing Gqi5
Assay type: cell-based
Conditions: for % Activity at 5 μM: 5 μM compound compared to the maximal activity of GW9508 at 6.7 μM (100%); for EC50: human GPR120 stably expressing cells, 8 concentrations 0.00001 to 20 μM
Experimental: Human GPR120 stable cell line was purchased from Multispan Inc (26219 Eden Landing Road, Hayward, Calif. 94545). This GPR120 cell line was generated in HEK293 cells coexpressing Gqi5. In this cell line, the Flag epitope tag (DYKDDDDK) was fused to the amino terminus of human GPR120 protein.
The concentration of intracellular Ca^2+ was measured as described below. Human GPR120 cells were plated in 96 well plates (Poly-D-Lysine coated black/clear Plate, Greiner Bio-One) at 70,000 cells per well and cultured overnight in conditions of 37° C. and 5% CO2. A Ca^2+ assay dye stock solution was prepared by adding 10 mL of assay buffer (HBSS/20 mM HEPES, pH 7.4) to FLIPR Calcium 4 Assay Bulk Kit (Molecular Devices). The 10 mL of Ca^2+ assay dye solution was prepared by further diluting 0.5 mL of Ca^2+ assay dye stock solution with 10 mL of assay buffer. The medium of the cells was removed and immediately 100 μl of the Ca^2+ assay dye solution was dispensed into each well followed by incubation at 37° C. and 5% CO2 for 50 minutes to incorporate the Ca^2+ dye into the cells. The cell plate was then placed in the Flexstation (Molecular Devices) for 20 minutes at 37° C. Compounds were dissolved in 100% DMSO and diluted to desired concentrations with assay buffer and placed in Flexstation simultaneously with the cell plate for 20 minute incubation at 37° C. prior to reading. Fluorescence intensity was measured immediately following compound addition (25 μl/well) on the Flexstation at an excitation wavelength of 485 nm and an emission wavelength of 525 with 515 nm auto cutoff. The resulting increase in fluorescence intensities corresponds to increases in intracellular Ca^2+ levels.
Compounds were dissolved in 100% DMSO to a concentration of 20 mM to provide stock solutions. To determine activity against human GPR120, compounds were added with human GPR120 stably expressing cells (described above), at 8 desired concentrations ranging from 0.00001 to 20 μM, in 96 well plates and fluorescence intensities were measured for 90 seconds with 2-second intervals. An EC50 value (concentration of the GPR120 agonist where 50% of the agonist's maximal activity is observed) was calculated using the changes (Max-Min) of fluorescent intensity.
To determine percent activity for a tested compound, the fluorescence intensity value obtained at a particular concentration were compared to the maximal fluorescence intensity value obtained for reference compound GW9508 (4-[[(3-phenoxyphenyl)methyl]amino]benzene propanoic acid; British Journal of Pharmacology 2006 148, 619-628) that acts as a full agonist of the GPR120 receptor. The maximal activity of GW9508 is designated as 100% activity. Typically, the GW9508 activity reached a maximum at a concentration of approximately 6.7 μM. Activities of compounds that were tested according to this method are shown in Table 1 below and are expressed as % activity at 5 μM compound compared to the maximal activity of GW9508 at 6.7 μM.

[1] = read-out: EC50 between >1 μM and ≦10 μM

SMILES | % Activity at 5 μM [%] | EC50 (read-out: EC50 > 10 μM) [nM] | EC50 [1] [nM] | EC50 (read-out: EC50 ≦ 1 μM) [nM]
C[C@@H](Oc1cc(F)c(OCc2snnc2-c2ccc(Cl)cc2)c(F)c1)C(=O)O [Example 66, (R)-2-(4-((4-(4-chlorophenyl)-1,2,3-thiadiazol-5-yl)methoxy)-3,5-difluorophenoxy)propanoic acid] | 15 | > 10000 | – | –
O=C(O)CCC(=O)c1ccc(OCc2snnc2-c2ccc(Cl)cc2)cc1 [Example 67, 4-(4-((4-(4-chlorophenyl)-1,2,3-thiadiazol-5-yl)methoxy)phenyl)-4-oxobutanoic acid] | 59 | – | 1000 to 10000 | –
CO/N=C(/CCC(=O)O)c1ccc(OCc2snnc2-c2ccc(Cl)cc2)cc1 [Example 68, (Z)-4-(4-((4-(4-chlorophenyl)-1,2,3-thiadiazol-5-yl)methoxy)phenyl)-4-(methoxyimino)butanoic acid] | 54 | – | 1000 to 10000 | –
C/C(=C\C(=O)O)Cc1ccc(OCc2snnc2-c2ccc(Cl)cc2)cc1 [Example 69, (E)-4-(4-((4-(4-chlorophenyl)-1,2,3-thiadiazol-5-yl)methoxy)phenyl)-3-methylbut-2-enoic acid] | 87 | – | 1000 to 10000 | –
C/C(=C\C(=O)O)CCc1ccc(OCc2snnc2-c2ccc(Cl)cc2)cc1 [Example 70, (E)-5-(4-((4-(4-chlorophenyl)-1,2,3-thiadiazol-5-yl)methoxy)phenyl)-3-methylpent-2-enoic acid] | 62 | – | 1000 to 10000 | –
Cc1cc(COc2ccc(CCC(C)CC(=O)O)cc2)n(-c2ccc(Cl)cc2)n1 (centres unmarked) [Example 71, 5-(4-((1-(4-chlorophenyl)-3-methyl-1H-pyrazol-5-yl)methoxy)phenyl)-3-methyl pentanoic acid] | 100 | – | – | ≤ 1000
Cc1cc(COc2ccc(CC(C)CC(=O)O)cc2)n(-c2ccc(Cl)cc2)n1 (centres unmarked) [Example 72, 4-(4-((1-(4-chlorophenyl)-3-methyl-1H-pyrazol-5-yl)methoxy)phenyl)-3-methylbutanoic acid] | 100 | – | – | ≤ 1000
O=C(O)CCc1cc(F)c(OCc2snnc2-c2ccc(F)c(F)c2)c(F)c1 [Example 73, 3-(4-((4-(3,4-difluorophenyl)-1,2,3-thiadiazol-5-yl)methoxy)-3,5-difluorophenyl)propanoic acid] | 72 | – | – | ≤ 1000
Cc1cc(COc2c(F)cc(CC(C)C(=O)O)cc2F)n(-c2ccc(C(C)C)cc2)n1 (centres unmarked) [Example 76, 3-(3,5-difluoro-4-((1-(4-isopropylphenyl)-3-methyl-1H-pyrazol-5-yl)methoxy)phenyl)-2-methylpropanoic acid] | 85 | – | – | ≤ 1000
Cc1cc(COc2c(F)cc(CC(C)C(=O)O)cc2F)n(-c2ccc(C(F)(F)F)cc2)n1 (centres unmarked) [Example 77, 3-(3,5-difluoro-4-((3-methyl-1-(4-(trifluoromethyl)phenyl)-1H-pyrazol-5-yl)methoxy)phenyl)-2-methylpropanoic acid] | 95 | – | – | ≤ 1000
Cc1cc(COc2ccc(CC(C)C(=O)O)cc2C(F)(F)F)n(-c2ccc(Cl)cc2)n1 (centres unmarked) [Example 78, 3-(4-((1-(4-chlorophenyl)-3-methyl-1H-pyrazol-5-yl)methoxy)-3-(trifluoromethyl)phenyl)-2-methylpropanoic acid] | 92 | – | – | ≤ 1000
Cc1cc(COc2c(F)cc(CC(C)C(=O)O)cc2F)n(-c2ccc(C(N)=O)cc2)n1 (centres unmarked) [Example 79, 3-(4-((1-(4-carbamoylphenyl)-3-methyl-1H-pyrazol-5-yl)methoxy)-3,5-difluorophenyl)-2-methylpropanoic acid] | 9 | > 10000 | – | –
Cc1cc(COc2c(F)cc(CC(C)C(=O)O)cc2F)n(-c2ccc(C#N)cc2)n1 (centres unmarked) [Example 80, 3-(4-((1-(4-cyanophenyl)-3-methyl-1H-pyrazol-5-yl)methoxy)-3,5-difluorophenyl)-2-methylpropanoic acid] | 92 | – | – | ≤ 1000

From patent US20100216827A1 (Metabolex, Inc., priority 2008, published 2010)
